The record followed here is PMC6882135 (ACS Omega, 2019).

For test [1], the target named is T1, human HDAC11 (Homo sapiens, UniProt Q96DB2).
T1 sequence (Q96DB2 1-347): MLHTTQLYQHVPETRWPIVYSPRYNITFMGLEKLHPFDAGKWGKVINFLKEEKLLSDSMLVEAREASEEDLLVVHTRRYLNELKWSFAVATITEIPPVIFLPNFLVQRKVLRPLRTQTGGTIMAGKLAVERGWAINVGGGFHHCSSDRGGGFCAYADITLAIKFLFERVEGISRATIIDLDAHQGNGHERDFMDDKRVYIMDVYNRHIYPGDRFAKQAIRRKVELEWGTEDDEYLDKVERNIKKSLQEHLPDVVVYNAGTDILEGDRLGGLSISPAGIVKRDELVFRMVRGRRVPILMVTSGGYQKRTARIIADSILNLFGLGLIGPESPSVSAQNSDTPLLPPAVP
Kind of test: Discontinuous fluorescence-based. It is filed as biochemical.

Test [2] addresses T1, human HDAC11. Kind of test: Continuous fluorescence HDAC11 activity assay with peptidic substrate 1. It is filed as biochemical.

As usually defined, the IC50 is the point on the concentration scale where inhibition reaches its midpoint. As to `CCCC(CCC)C(=O)O` [valproate], the IC50 against human HDAC11 [1] and at human HDAC11 [2] was above 40 µM in each case.

As to `Nc1ccccc1NC(=O)c1ccc(CNc2nccc(-c3cccnc3)n2)cc1` [mocetinostat, N-(2-aminophenyl)-4-(4-pyridin-3-ylpyrimidin-2-ylamino)methylbenzamide], the IC50 against human HDAC11 [1] and at human HDAC11 [2] was above 40 µM throughout.

For `C/C=C1\NC(=O)[C@H]2CSSCC/C=C/[C@H](CC(=O)N[C@H](C(C)C)C(=O)N2)OC(=O)[C@H](C(C)C)NC1=O` [romidepsin], half-maximal inhibition against human HDAC11 [1] (IC50) required 4.81 ± 0.04 µM.
